Results published in ChEMBL document CHEMBL2073755, “TP-search Transporter Database” (Jpn Pharmacol Ther, 2001).

T1: Solute carrier family 22 member 7 (Rattus norvegicus, UniProt Q5RLM2)
T1 sequence (Q5RLM2 whole entry): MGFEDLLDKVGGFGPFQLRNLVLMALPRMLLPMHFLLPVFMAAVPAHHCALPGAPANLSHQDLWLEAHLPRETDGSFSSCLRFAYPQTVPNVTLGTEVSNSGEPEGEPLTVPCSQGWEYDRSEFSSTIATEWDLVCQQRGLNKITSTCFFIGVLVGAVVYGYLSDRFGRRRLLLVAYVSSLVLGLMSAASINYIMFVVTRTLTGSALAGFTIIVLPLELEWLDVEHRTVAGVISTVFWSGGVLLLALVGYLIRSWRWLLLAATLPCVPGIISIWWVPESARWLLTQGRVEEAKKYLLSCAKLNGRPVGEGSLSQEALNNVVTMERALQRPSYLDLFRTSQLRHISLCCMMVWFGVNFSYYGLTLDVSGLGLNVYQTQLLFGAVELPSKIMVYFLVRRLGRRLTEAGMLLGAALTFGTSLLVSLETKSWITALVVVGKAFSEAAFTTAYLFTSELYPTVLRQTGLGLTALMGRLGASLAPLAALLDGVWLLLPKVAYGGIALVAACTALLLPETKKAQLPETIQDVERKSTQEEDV

T2: Oat2 (Solute carrier family 22 member 7) (Rattus norvegicus, UniProt Q5RLM2)
T2 sequence (Q5RLM2 whole entry): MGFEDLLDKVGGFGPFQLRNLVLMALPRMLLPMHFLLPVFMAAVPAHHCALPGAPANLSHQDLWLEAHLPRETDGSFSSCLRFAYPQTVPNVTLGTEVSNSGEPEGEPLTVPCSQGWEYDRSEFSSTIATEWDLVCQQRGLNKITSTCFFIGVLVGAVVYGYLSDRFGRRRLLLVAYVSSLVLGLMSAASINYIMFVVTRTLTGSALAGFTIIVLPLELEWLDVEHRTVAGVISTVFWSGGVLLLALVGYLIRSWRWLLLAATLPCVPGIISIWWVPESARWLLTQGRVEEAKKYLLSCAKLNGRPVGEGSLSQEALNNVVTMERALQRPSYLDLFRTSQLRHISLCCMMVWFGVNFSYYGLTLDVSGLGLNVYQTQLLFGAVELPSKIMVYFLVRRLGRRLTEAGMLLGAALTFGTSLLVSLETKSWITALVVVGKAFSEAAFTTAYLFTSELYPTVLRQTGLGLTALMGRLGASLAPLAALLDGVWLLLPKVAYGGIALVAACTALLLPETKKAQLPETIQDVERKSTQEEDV


Legend:
[1] = molecular target: T1, Solute carrier family 22 member 7; assay: TP_TRANSPORTER: inhibition of Salicylate uptake in Oat2-expressing LLC PK1 cells; type: functional, cell-based
[2] = molecular target: T2, Oat2 (Solute carrier family 22 member 7); assay: (§1) TP_TRANSPORTER: uptake in Oat2-expressing LLC PK1 cells; type: functional, cell-based; conditions: pig
[3] = substrate: Nc1ccn([C@H]2CC[C@@H](CO)O2)c(=O)n1; assay: as §1; type: functional, cell-based
[4] = substrate: O=C(O)c1ccccc1O; assay: cells, lysate or membranes named

| Molecule | Ki [1] [nM] | Km [2] [µM] | also measured |
| --- | --- | --- | --- |
| COc1ccc(Cl)cc1C(=O)NCCc1ccc(S(=O)(=O)NC(=O)NC2CCCCC2)cc1 [GLYBURIDE] | 12300 | – | – |
| CC1(C)C(/C=C/C=C/C=C/C=C2\N(CCCCS(=O)(=O)O)c3ccc4ccccc4c3C2(C)C)=[N+](CCCCS(=O)(=O)[O-])c2ccc3ccccc3c21 [INDOCYANINE GREEN] | 1150 | – | – |
| COc1ccc2c(c1)c(CC(=O)O)c(C)n2C(=O)c1ccc(Cl)cc1 [INDOMETHACIN] | – | 0.366 | – |
| CC(C(=O)O)c1cccc(C(=O)c2ccccc2)c1 (configuration not stated) [KETOPROFEN] | 1840 | – | – |
| Cc1cn([C@H]2C[C@H](N=[N+]=[N-])[C@@H](CO)O2)c(=O)[nH]c1=O [ZIDOVUDINE] | – | 26 | – |
| Solute carrier family 22 member 7 (Rattus norvegicus) (protein) MGFEDLLDKVGGFGPFQLRNLVLMALPRMLLPMHFLLPVFMAAVPAHHCALPGAPANLSHQDLWLEAHLPRETDGSFSSCLRFAYPQTVPNVTLGTEVSNSGEPEGEPLTVPCSQGWEYDRSEFSSTIATEWDLVCQQRGLNKITSTCFFIGVLVGAVVYGYLSDRFGRRRLLLVAYVSSLVLGLMSAASINYIMFVVTRTLTGSALAGFTIIVLPLELEWLDVEHRTVAGVISTVFWSGGVLLLALVGYLIRSWRWLLLAATLPCVPGIISIWWVPESARWLLTQGRVEEAKKYLLSCAKLNGRPVGEGSLSQEALNNVVTMERALQRPSYLDLFRTSQLRHISLCCMMVWFGVNFSYYGLTLDVSGLGLNVYQTQLLFGAVELPSKIMVYFLVRRLGRRLTEAGMLLGAALTFGTSLLVSLETKSWITALVVVGKAFSEAAFTTAYLFTSELYPTVLRQTGLGLTALMGRLGASLAPLAALLDGVWLLLPKVAYGGIALVAACTALLLPETKKAQLPETIQDVERKSTQEEDV | – | – | Km [3]: 3000 µM; Km [4]: 81.2 µM |
